According to patent US4311699A, “Aminoacid derivatives of cephalosporin compounds” (priority 1980, dated 1982):
≈ marks a conversion by molar mass, not a printed value.

Tests used:
Test in all cases: in vitro antibacterial activity, minimal inhibitory concentration
Format in all cases: cell-based
E. coli Brig = settings: Escherichia coli
Excerpt: (§1) The compounds of the invention are new chemical compounds that are used as pharmacological agents and especially as broad spectrum antibacterial agents. They are active in vitro against strains of both gram-positive and gram-negative bacteria.
(§2) Minimal Inhibitory Concentration (μg/ml)

Pseudomonas UI 18 = settings: UI18; Pseudomonas UI 18, in vitro
Excerpt: as §1, §2

Serr. marces. = system: Serr. marces.
Excerpt: as §1, §2

Pseudomonas #28 = settings: Pseudomonas #28, in vitro; read-out: Minimal Inhibitory Concentration
Excerpt: as §1, §2

Klebs. pneu. = system: Klebs. pneu.
Excerpt: as §1, §2

Staph. aureus S18733 = settings: Staphylococcus aureus
Excerpt: as §1, §2

E. coli Vogel = settings: Escherichia coli
Excerpt: as §1, §2

Prot. vulg. = system: Prot. vulg.
Excerpt: as §1, §2

Staph. aureus UC-76 = settings: Staphylococcus aureus, UC76; Staph. aureus UC-76, in vitro
Excerpt: as §1, §2

Strep. fec. = system: Strep. fec.
Excerpt: as §1, §2

Pseudomonas BRK 12-4-4 = settings: BRK1244; Pseudomonas BRK 12-4-4, in vitro
Excerpt: as §1, §2

Entero. cloacae = settings: Enterobacter cloacae
Excerpt: as §1, §2

For CSCCC(NC(C)=O)C(=O)Nc1ccc(-c2ncc(C(=O)N[C@@H](C(=O)N[C@@H]3C(=O)N4C(C(=O)O)=C(COC(C)=O)CS[C@H]34)c3ccccc3)c(O)n2)cc1 (mixture of isomers) [Example 5, N-[2-[4-(N-Acetyl-DL-methionylamino)phenyl]-4-hydroxy-5-pyrimidinylcarbonyl]-7-[D-2-amino-2-phenylacetamido]-3-acetoxymethyl-3-cephem-4-carboxylic acid], the MIC (E. coli Brig) was 25 µg/mL, the MIC (Pseudomonas UI 18) was 6.3 µg/mL and the MIC (Serr. marces.) was greater than 50 µg/mL. It also gave an MIC (Pseudomonas #28) of 3.1 µg/mL, an MIC (Klebs. pneu.) of 12.5 µg/mL and an MIC (Staph. aureus S18733) of 3.1 µg/mL. It also gave an MIC (E. coli Vogel) of 6.3 µg/mL, an MIC (Prot. vulg.) of 25 µg/mL and an MIC (Staph. aureus UC-76) of 1.6 µg/mL. The MIC (Strep. fec.) was 50 µg/mL, the MIC (Pseudomonas BRK 12-4-4) was 6.3 µg/mL and the MIC (Entero. cloacae) was 25 µg/mL.

Work on NC(=O)CC[C@H](N)C(=O)Nc1ccc(-c2ncc(C(=O)N[C@@H](C(=O)NC3C(=O)N4C(C(=O)O)=C(CSc5nnnn5CC(=O)O)CSC34)c3ccccc3)c(O)n2)cc1 (stereo partly drawn) [Example 41, N-[2-[4-(L-Glutaminylamino)phenyl]-4-hydroxy-5-pyrimidinylcarbonyl]-7-[D-2-amino-2-phenylacetamido]-3-[[(1-carboxymethyl-1H-tetrazol-5-yl)thio]methyl]-3-cephem-4-carboxylic acid] yielded an MIC (E. coli Brig) of 12.5 µg/mL (≈ 14.8 µM), an MIC (Pseudomonas UI 18) of 12.5 µg/mL (≈ 14.8 µM) and an MIC (Serr. marces.) of 50 µg/mL (≈ 59 µM). The MIC (Pseudomonas #28) was 12.5 µg/mL (≈ 14.8 µM), the MIC (Klebs. pneu.) was 3.1 µg/mL (≈ 3.66 µM) and the MIC (Staph. aureus S18733) was 25 µg/mL (≈ 29.5 µM). For the same molecule, the MIC (E. coli Vogel) was 3.1 µg/mL (≈ 3.66 µM), the MIC (Prot. vulg.) was 1.6 µg/mL (≈ 1.89 µM) and the MIC (Staph. aureus UC-76) was 12.5 µg/mL (≈ 14.8 µM). The MIC (Strep. fec.) was greater than 50 µg/mL, the MIC (Pseudomonas BRK 12-4-4) was 12.5 µg/mL (≈ 14.8 µM) and the MIC (Entero. cloacae) was 12.5 µg/mL (≈ 14.8 µM).

Molecule CC(=O)NC(C)C(=O)Nc1ccc(-c2ncc(C(=O)N[C@@H](C(=O)N[C@@H]3C(=O)N4C(C(=O)O)=C(COC(C)=O)CS[C@H]34)c3ccccc3)c(O)n2)cc1 (mixture of isomers) [Example 8, N-[2-[4-(N-Acetyl-DL-alanylamino)phenyl]-4-hydroxy-5-pyrimidinylcarbonyl]-7-[D-2-amino-2-phenylacetamido]-3-acetoxymethyl-3-cephem-4-carboxylic acid] has an MIC (E. coli Brig) of 25 µg/mL, an MIC (Pseudomonas UI 18) of 6.3 µg/mL and an MIC (Serr. marces.) greater than 50 µg/mL. It also gave an MIC (Pseudomonas #28) of 6.3 µg/mL, an MIC (Klebs. pneu.) of 6.3 µg/mL and an MIC (Staph. aureus S18733) of 1.6 µg/mL. For the same molecule, the MIC (E. coli Vogel) was 6.3 µg/mL, the MIC (Prot. vulg.) was 50 µg/mL and the MIC (Staph. aureus UC-76) was 1.6 µg/mL. It also gave an MIC (Strep. fec.) of 50 µg/mL, an MIC (Pseudomonas BRK 12-4-4) of 12.5 µg/mL and an MIC (Entero. cloacae) of 50 µg/mL.
